Assay results: BindingDB's records for doi:10.7270/Q20000JS (Johns Hopkins Ion Channel Center, 2010)

Target: Potassium voltage-gated channel subfamily KQT member 2 (Rattus norvegicus, UniProt O88943)
Assay: potentiation of rat KCNQ2 current – cell-based, automated electrophysiology, mechanism study for KCNQ2 potentiator project, dose response (AID 2603)

Chain of Potassium voltage-gated channel subfamily KQT member 2 (O88943 whole entry): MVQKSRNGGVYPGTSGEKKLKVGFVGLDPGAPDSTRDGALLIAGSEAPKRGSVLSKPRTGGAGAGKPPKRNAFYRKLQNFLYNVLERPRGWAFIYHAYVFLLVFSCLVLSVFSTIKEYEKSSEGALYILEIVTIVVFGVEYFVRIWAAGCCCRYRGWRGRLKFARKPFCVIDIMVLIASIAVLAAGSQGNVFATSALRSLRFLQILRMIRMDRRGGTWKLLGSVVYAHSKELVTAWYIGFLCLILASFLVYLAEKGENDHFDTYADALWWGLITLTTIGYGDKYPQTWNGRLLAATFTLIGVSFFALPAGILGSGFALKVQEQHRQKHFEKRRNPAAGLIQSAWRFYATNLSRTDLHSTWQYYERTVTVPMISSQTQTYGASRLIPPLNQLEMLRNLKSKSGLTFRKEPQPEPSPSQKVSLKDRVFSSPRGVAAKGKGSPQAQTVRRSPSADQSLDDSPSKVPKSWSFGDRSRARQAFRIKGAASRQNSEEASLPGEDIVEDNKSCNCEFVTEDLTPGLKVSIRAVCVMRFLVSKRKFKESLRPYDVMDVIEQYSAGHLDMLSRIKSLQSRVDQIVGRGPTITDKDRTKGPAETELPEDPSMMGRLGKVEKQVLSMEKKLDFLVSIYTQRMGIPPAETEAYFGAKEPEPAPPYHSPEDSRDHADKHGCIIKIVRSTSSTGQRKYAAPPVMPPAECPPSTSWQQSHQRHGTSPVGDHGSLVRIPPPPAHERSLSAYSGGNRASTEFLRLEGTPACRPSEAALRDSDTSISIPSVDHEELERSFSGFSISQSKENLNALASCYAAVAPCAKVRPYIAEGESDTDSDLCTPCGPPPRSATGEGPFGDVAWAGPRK

| EC50 [µM] | SMILES |
| --- | --- |
| 537 | CC1=NC(=O)NC(c2cccc(O)c2)C1C(=O)OC1CCCCCCC1 (configuration not stated) [SMR000111748] |
| 3.7 | CC(C)N1C(=O)C(=NNc2ccc(Cl)c(C(=O)O)c2)c2ccccc21 [MLS000773916] |
